# Test results reported in patent US20230355594A1, “TOPICAL OPHTHALMOLOGICAL COMPOSITIONS” (ADS THERAPEUTICS LLC, priority 2020, published 2023).
# Values joined by “and” are separate entries in the source; they are usually repeats but may differ in a detail not shown here. Identical values can stand only once. Like-named read-outs stand apart in the source and are kept apart here.
# Settings: for Atropine concentraion, Observed stable concentration after 10X serial dilution of the saturating concentration: successive 10X dilutions
# [1] = 99.25% F6H8, 0.75% phenylethyl alcohol
smiles,measurement,setting,value
CN1[C@@H]2CC[C@H]1C[C@@H](OC(=O)C(CO)c1ccccc1)C2 (stereo partly shown) [atropine],"Atropine concentraion, Measured saturating concentraion by HPLC/UV","98.00% F6H8, 2.00% isopropanol",0.153 w/w %
same,"Atropine concentraion, Measured saturating concentraion by HPLC/UV","99.25% F6H8, 0.75% ethanol",0.108 w/w %
same,"Atropine concentraion, Observed stable concentration after 10X serial dilution of the saturating concentration","99.25% F6H8, 0.75% ethanol",0.0108 w/w % and 0.00108 w/w % and 0.000108 w/w %
same,"Atropine concentraion, Measured saturating concentraion by HPLC/UV","99.25% F6H8, 0.75% isopropanol",0.082 w/w %
same,"Atropine concentraion, Observed stable concentration after 10X serial dilution of the saturating concentration","99.25% F6H8, 0.75% isopropanol",0.0082 w/w % and 0.00082 w/w % and 0.000082 w/w %
same,"Atropine concentraion, Measured saturating concentraion by HPLC/UV",[1],0.085 w/w %
same,"Atropine concentraion, Observed stable concentration after 10X serial dilution of the saturating concentration",[1],0.0085 w/w % and 0.00085 w/w % and 0.000085 w/w %
same,"Atropine concentraion, Measured saturating concentraion by HPLC/UV","99.50% F6H8, 0.50% ethanol",0.089 w/w %
same,"Atropine concentraion, Measured saturating concentraion by HPLC/UV","99.50% F6H8, 0.50% isopropanol",0.055 w/w %
same,"Atropine concentraion, Measured saturating concentraion by HPLC/UV","99.50% F6H8, 0.50% phenylethyl alcohol",0.055 w/w %
same,"Atropine concentraion, Measured saturating concentraion by HPLC/UV","99.75% F6H8, 0.25% ethanol",0.031 w/w %
same,"Atropine concentraion, Measured saturating concentraion by HPLC/UV","99.75% F6H8, 0.25% isopropanol",0.046 w/w %
same,"Atropine concentraion, Measured saturating concentraion by HPLC/UV","99.75% F6H8, 0.25% phenylethyl alcohol",0.043 w/w %
